Assay [1] deals with HCC1954. As to the kind of experiment: Antitumor activity against human HCC1954 cells xenografted in NCR nude mouse model assessed as tumor growth inhibition at 25 mg/kg via oral gavage administered for 28 days in presence of trastuzumab/pertuzumab by caliper method. The assay is classed as functional. Conditions: HCC1954, 672 h, time 28 day, read-out: TGI.
Assay [2] has as its system HCC1954. In words: Antitumor activity against human HCC1954 cells xenografted in NCR nude mouse model assessed as tumor growth inhibition at 25 mg/kg via oral gavage administered for 28 days by caliper method. The assay is classed as functional. Particulars: HCC1954, 672 h, time 28 day, read-out: TGI.

Turning to `C[C@H](Nc1ccc2c(c1)OCCn1cc(N3C(=O)OC[C@H]3C(F)F)nc1-2)C(N)=O` [INAVOLISIB], the results for the inhibition in vivo at 25 mg/kg in assay [1] and in assay [2] were 148% and 122%, respectively.

Source of the values: ChEMBL document CHEMBL5252621, “Effective Combination Therapies for the Treatment of HER2 Cancer” (2023).
